The results in this text go back to patent US20080175892A1, “Nanostructure-Drug Conjugates” (priority 2006, published 2008).

A short description of the data set: Aggregation in aqueous solution by particle-size analyzer (light scattering). As to conditions: aqueous solution (10% DMSO), 4 and 0.04 μg/mL solutions. Format: physicochemical. The source says: Thus, the aggregation properties of 6 and paclitaxel were studied as a function of concentration in aqueous solution (10% DMSO) using a Brookhaven 90Plus submicrometer particle-size analyzer.

Each structure is given as a SMILES string.

`CC(=O)O[C@H]1C(=O)[C@@]2(C)[C@H]([C@H](OC(=O)c3ccccc3)[C@]3(O)C[C@H](OC(=O)[C@H](O)[C@@H](NC(=O)c4ccccc4)c4ccccc4)C(C)=C1C3(C)C)[C@]1(OC(C)=O)CO[C@@H]1C[C@@H]2O` [paclitaxel, Paclitaxel]: the “light scattering (aggregation)” value was “did not show any scattering”.
